Laboratory results reported in patent publication US20240384268A1, “Oligonucleotides” (Hudson Institute of Medical Research, priority 2021, published 2024).
In the oligonucleotide strings, read from the 5' end, every base follows the letter of its sugar. An asterisk marks phosphorothioate; unmarked linkages are phosphodiester. Other units and linkages are bracketed, terminal groups are in braces. A string of capitals states the bases alone. d = 2'-deoxy (DNA); m = 2'-O-methyl

Biological target: cGAS (Homo sapiens, UniProt Q8N884)
Sequence (Q8N884 whole entry): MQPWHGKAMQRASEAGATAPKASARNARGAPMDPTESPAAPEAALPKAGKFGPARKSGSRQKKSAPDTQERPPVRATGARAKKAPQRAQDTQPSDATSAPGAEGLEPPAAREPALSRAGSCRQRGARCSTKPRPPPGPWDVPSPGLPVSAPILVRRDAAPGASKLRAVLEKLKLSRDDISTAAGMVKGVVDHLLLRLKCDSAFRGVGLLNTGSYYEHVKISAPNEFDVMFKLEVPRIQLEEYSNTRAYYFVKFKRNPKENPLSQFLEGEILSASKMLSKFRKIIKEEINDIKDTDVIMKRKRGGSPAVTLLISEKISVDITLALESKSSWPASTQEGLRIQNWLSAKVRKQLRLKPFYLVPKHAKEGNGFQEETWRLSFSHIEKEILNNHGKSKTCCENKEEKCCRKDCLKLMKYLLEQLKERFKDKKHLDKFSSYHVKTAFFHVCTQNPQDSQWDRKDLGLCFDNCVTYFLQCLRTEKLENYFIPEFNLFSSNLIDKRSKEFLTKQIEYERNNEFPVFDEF
Assay: ISD70-driven IP-10 (and IFN-β) production in THP-1 cells, ELISA
Format: cell-based
Set-up: endogenous in cells; host or cells: THP-1 (undifferentiated)
Conditions: MOE-modified ASO at 100 nM; averaged IP-10 levels relative to ISD70 condition

Substance	cGAS 100 nM
ATGCCATCCACTTGATAGGC (antisense; 2'-MOE modified, pattern not given here) [EGFR-2874 MOE]	0.639
GGGTATCGAAAGAGTCTGGA (antisense; 2'-MOE modified, pattern not given here) [EGFR-3908 MOE]	0.427
TGGCAGGCTCAGTGATGTCT (antisense; 2'-MOE modified, pattern not given here) [CTNN2B-1642 MOE]	0.605
TTTGCACACTTCGTACCCAA (antisense; 2'-MOE modified, pattern not given here) [CAMSAP1-4916 MOE]	0.335

Same assay, conditions: THP-1; 100 nM ASO overnight, then ISD70 2.5 μg/ml 7-8 h; percentage of ISD70 only

Substance	cGAS-100 nM: averaged IP-10 levels relative to ISD70
mG*mC*mG*mU*mA*G*T*T*T*C*T*C*T*T*C*mC*mU*mC*mC*mC (GCGUAGTTTCTCTTCCUCCC; sugars from the 5' end m5 d10 m5, all phosphorothioate, methylation of C not given here) [[LINC-PINT]935 KL]	50.62%
mU*mC*mU*mC*mU*G*G*T*C*C*C*A*T*C*C*mC*mU*mU*mC*mU (UCUCUGGTCCCATCCCUUCU; antisense; sugars from the 5' end m5 d10 m5, all phosphorothioate, methylation of C not given here) [[LINC-PINT]108]	104.65%
mU*mU*mU*mG*mA*A*A*T*T*C*A*G*A*A*G*mA*mU*mU*mU*mG (mU*mU*mU*mG*mA*dA*dA*dT*dT*dC*dA*dG*dA*dA*dG*mA*mU*mU*mU*mG) [[LINC PINT|2690]	84.15%
mG*mA*mA*mA*mA*G*A*T*T*A*T*C*T*T*C*mU*mU*mU*mU*mA (GAAAAGATTATCTTCUUUUA; sugars from the 5' end m5 d10 m5, all phosphorothioate, methylation of C not given here) [[CDKN2B-AS1]2134]	51.49%
mA*mC*mC*mC*mU*T*C*T*C*T*C*T*G*G*T*mC*mC*mC*mA*mU (mA*mC*mC*mC*mU*dT*dC*dT*dC*dT*dC*dT*dG*dG*dT*mC*mC*mC*mA*mU; antisense) [[LINC-PINT]115]	89.81%
mG*mG*mU*mC*mC*C*A*T*C*C*C*T*T*C*T*mG*mC*mU*mG*mC (GGUCCCATCCCTTCTGCUGC; sugars from the 5' end m5 d10 m5, all phosphorothioate, methylation of C not given here) [[LINC-PINT]103]	45.23%
mG*mU*mU*mC*mA*G*T*C*A*G*A*T*C*G*C*mU*mG*mG*mG*mA (mG*mU*mU*mC*mA*dG*dT*dC*dA*dG*dA*dT*dC*dG*dC*mU*mG*mG*mG*mA) [[LINC-PINT]412 KL]	93.74%
mG*mG*mG*mU*mC*T*C*C*T*C*C*A*C*A*C*mC*mC*mU*mU*mC (GGGUCTCCTCCACACCCUUC; antisense; sugars from the 5' end m5 d10 m5, all phosphorothioate, methylation of C not given here) [[LINC-PINT]128]	37.83%
mC*mU*mC*mU*mC*T*G*G*T*C*C*C*A*T*C*mC*mC*mU*mU*mC (mC*mU*mC*mU*mC*dT*dG*dG*dT*dC*dC*dC*dA*dT*dC*mC*mC*mU*mU*mC; antisense) [[LINC-PINT]109]	80.22%
mC*mA*mC*mC*mC*T*T*C*T*C*T*C*T*G*G*mU*mC*mC*mC*mA (CACCCTTCTCTCTGGUCCCA; antisense; sugars from the 5' end m5 d10 m5, all phosphorothioate, methylation of C not given here) [[LINC-PINT]116]	97.19%
mA*mU*mA*mU*mC*T*G*C*T*G*C*C*C*A*C*mC*mU*mU*mC*mU (AUAUCTGCTGCCCACCUUCU; antisense; sugars from the 5' end m5 d10 m5, all phosphorothioate, methylation of C not given here) [[CDKN2B-AS1]831]	108.01%
mC*mU*mU*mC*mU*C*T*C*T*G*G*T*C*C*C*mA*mU*mC*mC*mC (mC*mU*mU*mC*mU*dC*dT*dC*dT*dG*dG*dT*dC*dC*dC*mA*mU*mC*mC*mC) [[LINC-PINT]112]	82.64%
mA*mA*mG*mA*mU*T*A*T*C*T*T*C*T*T*T*mU*mA*mA*mU*mU (mA*mA*mG*mA*mU*dT*dA*dT*dC*dT*dT*dC*dT*dT*dT*mU*mA*mA*mU*mU) [[CDKN2B-AS1]2131]	73.50%
mU*mU*mC*mU*mC*T*C*T*G*G*T*C*C*C*A*mU*mC*mC*mC*mU (mU*mU*mC*mU*mC*dT*dC*dT*dG*dG*dT*dC*dC*dC*dA*mU*mC*mC*mC*mU; antisense) [[LINC-PINT]111]	77.41%
mG*mG*mU*mC*mU*C*C*T*C*C*A*C*A*C*C*mC*mU*mU*mC*mU (mG*mG*mU*mC*mU*dC*dC*dT*dC*dC*dA*dC*dA*dC*dC*mC*mU*mU*mC*mU; antisense) [[LINC-PINT]127]	36.95%
mC*mC*mC*mU*mU*C*T*C*T*C*T*G*G*T*C*mC*mC*mA*mU*mC (mC*mC*mC*mU*mU*dC*dT*dC*dT*dC*dT*dG*dG*dT*dC*mC*mC*mA*mU*mC; antisense) [[LINC-PINT]114]	84.38%
mC*mC*mU*mA*mG*A*A*A*G*A*A*G*C*A*A*mA*mG*mA*mU*mU (mC*mC*mU*mA*mG*dA*dA*dA*dG*dA*dA*dG*dC*dA*dA*mA*mG*mA*mU*mU) [[CDKN2B-AS1]1522]	60.90%
mA*mG*mG*mC*mC*T*C*C*A*G*T*G*T*C*T*mU*mC*mU*mC*mC (mA*mG*mG*mC*mC*dT*dC*dC*dA*dG*dT*dG*dT*dC*dT*mU*mC*mU*mC*mC; antisense) [[CDKN2B-AS1]2218]	62.85%
mU*mU*mA*mA*mA*T*A*A*T*C*T*A*G*T*T*mU*mG*mA*mA*mG (UUAAATAATCTAGTTUGAAG; sugars from the 5' end m5 d10 m5, all phosphorothioate, methylation of C not given here) [[CDKN2B-AS1]132]	52.20%
mG*mA*mU*mU*mA*A*A*A*C*A*G*A*T*T*A*mA*mU*mA*mC*mA (mG*mA*mU*mU*mA*dA*dA*dA*dC*dA*dG*dA*dT*dT*dA*mA*mU*mA*mC*mA) [[CDKN2B-AS1]1773]	89.36%
mA*mA*mG*mG*mU*G*G*C*C*A*C*A*G*G*C*mA*mA*mC*mG*mU (mA*mA*mG*mG*mU*dG*dG*dC*dC*dA*dC*dA*dG*dG*dC*mA*mA*mC*mG*mU; antisense) [[CDKN2B-AS1]2198]	60.48%
mA*mA*mA*mA*mG*A*T*T*A*T*C*T*T*C*T*mU*mU*mU*mA*mA (AAAAGATTATCTTCTUUUAA; sugars from the 5' end m5 d10 m5, all phosphorothioate, methylation of C not given here) [[CDKN2B-AS1]2133]	57.68%
mU*mG*mA*mC*mA*T*T*T*C*G*T*G*G*C*T*mC*mC*mU*mA*mC (mU*mG*mA*mC*mA*dT*dT*dT*dC*dG*dT*dG*dG*dC*dT*mC*mC*mU*mA*mC; antisense) [[LINC-PINT]523 KL]	39.34%

Same assay, conditions: THP-1; 2′OMe or PS oligos, 100-250 nM, pre-treatment as in figure legends; ISD70 2.5 μg/ml

Substance	inhibition of ISD70-driven IP-10 production (in words)
mG*mG*mU*mC*mC*C*A*T*C*C*C*T*T*C*T*mG*mC*mU*mG*mC (GGUCCCATCCCTTCTGCUGC; sugars from the 5' end m5 d10 m5, all phosphorothioate, methylation of C not given here) [[LINC-PINT]103]	significantly inhibiting ISD70-driven IP-10 production
